Assay results as given in patent US20250074873A1, “COMPOUNDS” (Psylo Pty Ltd, priority 2021, published 2025).
Read-outs that look alike come from different tables or passages of the source.

Legend:
Type in all cases: cell-based
[1] = target: T1, 5-HT2B receptor (Homo sapiens, UniProt P41595); assay: FLIPR Ca2+ flux functional assay, 5-HT2B agonist activity
T1 construct: host or cells: CHO-K1
Protocol: (§1) Functional Assays 5-HT2A, 5-HT2B and 5-HT2C Receptors
(§2) Activity at 5-HT2A, 5-HT2B and 5-HT2C receptors was determined using a FLIPR Ca2+ flux assay at WuXi AppTec Co. Ltd. (Hong Kong) Discovery Biology Unit according to their standard protocols. Briefly, stably transfected cells expressing the receptor of interest (HEK293 for 5-HT2A and 5-HT2C; CHO-K1 for 5-HT2B) were grown and plated in a 384 well plate and incubated at 37° C. and 5% 002 overnight. A 250 mM stock solution of probenecid in FLIPR calcium assay buffer (10 mL) was freshly prepared and combined with a fluorescent dye (Fluo-4 Direct) to give a final assay concentration of 2.5 mM. Reference compounds were 4-fold serially diluted and the screening compounds were 3-fold serially diluted in 100% DMSO for 10 points using Agilent Bravo, and 750 nL was added to a 384 well compound plate using Echo along with 30 μL assay buffer. The fluorescent dye was then added to the assay plate along with assay buffer to a final volume of 40 μL. The cell plate was incubated for […] at 37° C. and 5% 002 and placed into the FLIPR Tetra along with the compound plate. 10 μL of references and compounds were then transferred from the compound plate into the cell plate and the fluorescent signal was read.

[2] = target: T2, 5-HT2A receptor (Homo sapiens, UniProt P28223); assay: FLIPR Ca2+ flux functional assay, 5-HT2A agonist activity
T2 construct: host or cells: HEK293
Protocol: as §1, §2

[3] = target: T3, 5-HT2C receptor (Homo sapiens, UniProt P28335); assay: FLIPR Ca2+ flux functional assay, 5-HT2C agonist activity
T3 construct: host or cells: HEK293
T3 sequence (P28335 33-458): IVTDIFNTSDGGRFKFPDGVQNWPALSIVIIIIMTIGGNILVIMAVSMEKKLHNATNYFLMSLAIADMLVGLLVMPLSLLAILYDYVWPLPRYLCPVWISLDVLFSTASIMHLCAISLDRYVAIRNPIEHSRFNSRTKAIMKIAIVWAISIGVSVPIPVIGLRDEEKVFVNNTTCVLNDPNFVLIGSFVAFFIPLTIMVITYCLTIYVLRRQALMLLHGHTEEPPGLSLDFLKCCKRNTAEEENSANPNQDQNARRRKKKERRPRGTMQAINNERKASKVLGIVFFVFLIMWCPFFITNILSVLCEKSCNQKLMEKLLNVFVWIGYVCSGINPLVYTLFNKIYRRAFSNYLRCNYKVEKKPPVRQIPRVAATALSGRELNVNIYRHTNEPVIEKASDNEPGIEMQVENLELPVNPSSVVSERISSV
Protocol: as §1, §2

[4] = agonist activity, Ca2+ flux, stably transfected CHO-K1 cells
[5] = agonist activity, Ca2+ flux, stably transfected HEK293 cells

T2 sequence (P28223 whole entry): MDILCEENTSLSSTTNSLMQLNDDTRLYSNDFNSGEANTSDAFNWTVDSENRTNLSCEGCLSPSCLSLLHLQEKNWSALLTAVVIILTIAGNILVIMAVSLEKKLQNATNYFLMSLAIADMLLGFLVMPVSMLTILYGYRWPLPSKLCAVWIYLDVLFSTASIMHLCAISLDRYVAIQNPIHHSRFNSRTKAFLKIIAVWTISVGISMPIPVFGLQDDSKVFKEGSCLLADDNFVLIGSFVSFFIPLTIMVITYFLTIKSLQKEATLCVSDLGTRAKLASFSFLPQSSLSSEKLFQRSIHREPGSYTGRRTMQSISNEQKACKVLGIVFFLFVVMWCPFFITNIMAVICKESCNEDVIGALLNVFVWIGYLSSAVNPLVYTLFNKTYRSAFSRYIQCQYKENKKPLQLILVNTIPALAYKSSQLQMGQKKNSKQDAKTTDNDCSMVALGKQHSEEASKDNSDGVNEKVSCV
T1 sequence (P41595 whole entry): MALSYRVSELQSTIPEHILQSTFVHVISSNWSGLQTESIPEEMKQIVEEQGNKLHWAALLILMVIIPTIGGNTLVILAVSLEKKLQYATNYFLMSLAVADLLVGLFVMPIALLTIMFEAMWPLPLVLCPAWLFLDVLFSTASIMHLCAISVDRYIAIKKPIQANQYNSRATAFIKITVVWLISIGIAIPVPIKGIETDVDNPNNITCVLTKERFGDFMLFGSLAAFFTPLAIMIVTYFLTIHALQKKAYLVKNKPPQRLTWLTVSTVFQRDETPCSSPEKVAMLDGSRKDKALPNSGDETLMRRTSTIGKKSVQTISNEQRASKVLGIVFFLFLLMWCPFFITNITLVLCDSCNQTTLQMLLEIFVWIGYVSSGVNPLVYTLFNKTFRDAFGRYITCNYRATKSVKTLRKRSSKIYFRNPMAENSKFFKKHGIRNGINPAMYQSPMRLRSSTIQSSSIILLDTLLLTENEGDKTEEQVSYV

Compound	EC50 [1]	Emax [1, 4]	EC50 [2]	Emax [2, 5]	EC50 [3]	Emax [3, 5]	EC50 ([1]; agonist activity, Ca2+ flux, stably transfected CHO-K1 cells, read-out: 5-HT2B EC50)	EC50 ([2]; agonist activity, Ca2+ flux, stably transfected HEK293 cells, read-out: 5-HT2A EC50)	EC50 ([3]; agonist activity, Ca2+ flux, stably transfected HEK293 cells, read-out: 5-HT2c EC50)
CN(C)CCc1c[nH]c2cccc(OC(F)(F)F)c12 [Compound P-4, N,N-dimethyl-2-(4-(trifluoromethoxy)-1H-indol-3-yl)ethan-1-amine]	> 10000 nM	-0.97%	52.8 nM	34.6%	15.9 nM	66.6%	–	–	–
CN(C)CCc1c[nH]c2ccc(OC(F)(F)F)cc12 [Compound P-5, N,N-dimethyl-2-(5-(trifluoromethoxy)-1H-indol-3-yl)ethan-1-amine]	> 10000 nM	-0.27%	171 nM	40.5%	520 nM	55.1%	–	–	–
CN(C)CCc1c[nH]c2ccc(C(F)(F)F)cc12 [Compound P-15, N,N-dimethyl-2-(5-(trifluoromethyl)-1H-indol-3-yl)ethan-1-amine]	> 10000 nM	7.41%	186 nM	28.7%	89.7 nM	88.8%	–	–	–
CCC(C)N(C)CCc1c[nH]c2ccc(OC)cc12 (stereo not drawn) [Compound P-16, N-(2-(5-methoxy-1H-indol-3-yl)ethyl)-N-methylbutan-2-amine]	> 10000 nM	-1.2%	36.9 nM	58.5%	553 nM	59.5%	–	–	–
CCCN(CCc1c[nH]c2ccc(OC)cc12)C(C)C [Compound P-17, N-isopropyl-N-(2-(5-methoxy-1H-indol-3-yl)ethyl)propan-1-amine]	138 nM	69.2%	13.8 nM	89%	185 nM	82.1%	–	–	–
CCN(CCc1c[nH]c2ccc(OC)cc12)CC(C)C [Compound P-18, N-ethyl-N-(2-(5-methoxy-1H-indol-3-yl)ethyl)-2-methylpropan-1-amine]	867 nM	51.8%	47.9 nM	79.5%	1130 nM	68.9%	–	–	–
CCC(C)N(CC)CCc1c[nH]c2ccc(OC)cc12 (stereo not drawn) [Compound P-19, N-ethyl-N-(2-(5-methoxy-1H-indol-3-yl)ethyl)butan-2-amine]	1400 nM	44.5%	33.3 nM	70.3%	933 nM	76.8%	–	–	–
CCC(C)N(C)CCc1c[nH]c2ccccc12 (stereo not drawn) [Compound P-20, N-(2-(1H-indol-3-yl)ethyl)-N-methylbutan-2-amine]	> 10000 nM	0.83%	91.2 nM	16.1%	646 nM	58.8%	–	–	–
CCC(C)N(CC)CCc1c[nH]c2ccccc12 (stereo not drawn) [Compound P-21, N-(2-(1H-indol-3-yl)ethyl)-N-ethylbutan-2-amine]	> 10000 nM	37.2%	148 nM	71.5%	974 nM	61.5%	–	–	–
CCN(CCc1c[nH]c2ccccc12)CC(C)C [Compound P-22, N-(2-(1H-indol-3-yl)ethyl)-N-ethyl-2-methylpropan-1-amine]	1140 nM	28%	389 nM	52.8%	960 nM	58.4%	–	–	–
CCC(C)N(C)CCc1c[nH]c2cccc(OC)c12 (stereo not drawn) [Compound P-23, N-(2-(4-methoxy-1H-indol-3-yl)ethyl)-N-methylbutan-2-amine]	> 10000 nM	-0.21%	124 nM	50.3%	465 nM	21.7%	–	–	–
CCC(C)N(CC)CCc1c[nH]c2cccc(OC)c12 (stereo not drawn) [Compound P-24, N-ethyl-N-(2-(4-methoxy-1H-indol-3-yl)ethyl)butan-2-amine]	444 nM	52.6%	70.2 nM	77.7%	964 nM	68.6%	–	–	–
CCN(CCc1c[nH]c2cccc(OC)c12)C(C)C [Compound P-25, N-ethyl-N-(2-(4-methoxy-1H-indol-3-yl)ethyl)propan-2-amine]	459 nM	61.4%	121 nM	85.9%	676 nM	77.8%	–	–	–
CCCN(CCc1c[nH]c2cccc(OC)c12)C(C)C [Compound P-26, N-isopropyl-N-(2-(4-methoxy-1H-indol-3-yl)ethyl)propan-1-amine]	103 nM	96%	36.5 nM	81.6%	106 nM	87.1%	–	–	–
CCCN(C)CCc1c[nH]c2ccc(OC(F)(F)F)cc12 [Compound P-34, N-methyl-N-(2-(5-(trifluoromethoxy)-1H-indol-3-yl)ethyl)propan-1-amine]	> 10000 nM	18.9%	665 nM	53.7%	329 nM	81.7%	–	–	–
Cc1cccc2[nH]cc(CCN(C)C(C)C)c12 [Compound P-42, N-methyl-N-(2-(4-methyl-1H-indol-3-yl)ethyl)propan-2-amine]	814 nM	41.4%	39.6 nM	94.7%	48.6 nM	91.2%	–	–	–
COc1cccc2[nH]cc(CCN(C)CC(C)C)c12 [Compound P-136, N-(2-(4-methoxy-1H-indol-3-yl)ethyl)-N,2-dimethylpropan-1-amine]	> 10000 nM	-1.63%	91.5 nM	100%	261 nM	78.5%	–	–	–
CCN(CCc1c[nH]c2cccc(OC)c12)CC(C)C [Compound P-137, N-ethyl-N-(2-(4-methoxy-1H-indol-3-yl)ethyl)-2-methylpropan-1-amine]	> 10000 nM	19.4%	85.6 nM	95.8%	138 nM	96.2%	–	–	–
CCN(CCc1c[nH]c2cccc(O)c12)C(C)C [Compound P-138, 3-(2-(ethyl(isopropyl)amino)ethyl)-1H-indol-4-ol]	322 nM	53.5%	19.9 nM	105%	862 nM	83.3%	–	–	–
CCC(C)N(CC)CCc1c[nH]c2cccc(O)c12 (stereo not drawn) [Compound P-139, 3-(2-(sec-butyl(ethyl)amino)ethyl)-1H-indol-4-ol]	> 10000 nM	15.7%	54 nM	107%	1900 nM	55.2%	–	–	–
CCN(CCc1c[nH]c2cccc(O)c12)CC(C)C [Compound P-140, 3-(2-(ethyl(isobutyl)amino)ethyl)-1H-indol-4-ol]	> 10000 nM	17.5%	27.7 nM	97.5%	992 nM	95.4%	–	–	–
CCCN(CCc1c[nH]c2cccc(O)c12)C(C)C [Compound P-141, 3-(2-(isopropyl(propyl)amino)ethyl)-1H-indol-4-ol]	330 nM	62.2%	13.8 nM	105%	422 nM	92%	–	–	–
COc1ccc2[nH]cc(CCN(C)C3CC3)c2c1 [Compound P-162, N-(2-(5-methoxy-1H-indol-3-yl)ethyl)-N-methylcyclopropanamine]	≥ 10000 nM	12%	4.83 nM	95.6%	10.6 nM	89.2%	–	–	–
COc1ccc2[nH]cc(CCN(C)C3CCC3)c2c1 [Compound P-163, N-(2-(5-methoxy-1H-indol-3-yl)ethyl)-N-methylcyclobutanamine]	≥ 10000 nM	2.29%	25.4 nM	90.5%	128 nM	75.9%	–	–	–
COc1ccc2[nH]cc(CCN(C)C3COC3)c2c1 [Compound P-164, N-(2-(5-methoxy-1H-indol-3-yl)ethyl)-N-methyloxetan-3-amine]	–	1.26%	–	57.5%	–	59.9%	≥ 10000 nM	671 nM	6280 nM
